# Data: patent publication US20040131497A1, “PROCESS FOR STERILIZATION OF BIOLOGICAL COMPOSITIONS CONTAING PROTEIN” (priority 2002, published 2004)
# Read-outs that look alike come from different tables or passages of the source.
# Legend:
# PRV=pseudorabies virus = details: fibrinogen 5 g/L, UVC 254 nm, eight passes
# [1] = cited from earlier work
# Factor VIII = format: biochemical
SMILES,Log reduction PRV (PRV=pseudorabies virus; stabiliser 0.5 mM) [Log],Log reduction PRV (PRV=pseudorabies virus; stabiliser 1 mmol/l) [Log],Log reduction PRV (PRV=pseudorabies virus; stabiliser 2 mmol/l) [Log],solubility in aqueous solutions [1],PRV titer reduction (PRV) [Log],decrease in FVIII activity (Factor VIII) [%]
"C[C@@H]1O[C@@H](OC[C@H]2O[C@@H](Oc3c(-c4ccc(O)c(O)c4)oc4cc(O)cc(O)c4c3=O)[C@H](O)[C@@H](O)[C@@H]2O)[C@H](O)[C@H](O)[C@H]1O [rutin, reference compound]",3,3,2.5,poorly soluble in aqueous solutions,–,–
COc1cc(C=O)ccc1O [vanillin],5,5.5,5.5,–,5,10
